From US5859227A, “RNA sequences which interact with RNA-binding proteins” (Bearsden Bio, Inc., priority 1997, dated 1999)

Tests used:
[1] = tested on: TNF-α production; conditions: previously shown; cited from earlier work
[2] = tested on: AUUUA RNA / RNA binding protein (K562 extract); assay: Exploratory library screen, filter binding, 32P-labeled AUUUA RNA and K562 extract; conditions: 10 μM
Text: FIG. 4 is a graph of the amount of radioactively labeled RNA retained on a filter (expressed in percent of the amount of RNA retained on a filter in a reference binding solution) following loading of various binding solutions. All of the binding solutions contained radioactively labeled AUUUA RNA either alone or including various other components. The first column represents a binding solution without RNA binding protein. The remaining columns represent binding solution containing RNA binding protein (K562 extract). Columns 3 through 8 correspond to binding solutions including the indicated test compound.
(§1) a. Filter binding. Filter binding involves trapping interacting molecules on a filter while non interacting molecules pass through the filter. This procedure is known to those of skill in the art. For example, prewet nitrocellulose filters are equilibrated in 1× binding buffer. The binding reaction is then applied to the filter by vacuum filtration to remove unbound RNA. The filter is washed in 1× binding buffer, scintillation cocktail is added and the amount of protein-bound RNA is determined by scintillation counting.
(§2) All binding reactions were performed in 96-well v-bottom plates in a final volume of 10 μl. The assays were constituted and performed as described below. Specifically, assays were performed by (1) forming a binding solution including RNA molecules, 7.5 mM BTP at pH 8.5, 10 mM KCl, 5 mM MgCl2, 0.2 mM DTT, and 10% glycerol, (2) heating the binding solution to denature the RNA molecules, (3) cooling the binding solution, (4) adding RNA binding proteins to the binding solution, (5) loading the binding solution onto a filter, and (6) detecting the amount RNA retain on the filter. It is preferred that the samples be loaded on to a filter of either pure nitrocellulose or a mixed cellulose ester (MCA). It is also preferred that the filters have a 0.2μ pore size, although filters with a 0.45μ pore size will also bind the RNA/RNA binding protein complex. It is preferred that, prior to loading the binding solution onto a filter, the volume is increased. For this purpose, it is preferred that the dilution solution has the same buffer components as the binding solution except lacking the density agent. For a 10 μl volume it is preferred that the final volume be about 100 μl. It is also preferred that the binding solution be loaded onto the filter under vacuum. It is also preferred that the filter is washed twice prior to detecting the amount of RNA retained on the filter. Preferably the wash solution had the same composition as the dilution solution. However, TE (pH 8.0), PBS, or TCA can also be used as wash solutions. In most of the assays described below, the RNA molecules were labeled with ^32 P.
The library was initially screened at 10 μM against ^32 P-labeled AUUUA RNA. Several methods of introducing the compounds into the binding reaction were tested. Initially the compounds were co-incubated with the RNA and protein, producing modest results. Next, preincubation with either the protein extract or the RNA was tried with improved results.
Seventeen compounds were chosen for further analysis at 100 nM, 1 μM and 10 μM using both AUUUA and IRE RNAs based on the results from three screening efforts (Exps. 29-31). Table 2 summarizes the results from these compounds at 10 μM. The results are also shown graphically in FIG. 4. […] Compounds D9 and H2, chosen as negative controls from the initial screening, continued to have no effect in the dose dependent screen (Exp. 33) and were identified as vehicle controls.
A 96 member random compound library was screened with the disclosed high throughput assay. The compounds were initially screened at 10 μM against ^32 P-labeled AUUUA RNA. […] Seventeen compounds were chosen for further analysis at 100 nM, 1 μM and 10 μM using both AUUUA and IRE RNA molecules to determine if any selectivity of the compounds could be detected. […]

[3] = tested on: IRE RNA / RNA binding protein (K562 extract); assay: High throughput filter binding assay, labeled IRE RNA and K562 protein extract; conditions: hemin 1 to 100 μM; FeCl3 and desferroxiamine 1 μM to 1 mM
Experimental: as §1
as §2, with “It is also preferred that the binding solution be loaded onto the filter under vacuum. It is also preferred that the filter is washed twice prior to detecting the amount of RNA retained on the filter. Preferably the wash solution had the same composition as the dilution solution. However, TE (pH 8.0), PBS, or TCA can also be used as wash solutions. In most of the assays described below, the RNA molecules were labeled with ^32 P.” left out
Binding assays were performed with wild-type IRE RNA and K562 protein extract in the presence of sources of iron or iron chelators to determine the ability of the filter assay to detect the modulation of binding interactions by small molecules. […] The reactions were analyzed by gel shifts to visualize the results of the filter assay. […]

[4] = tested on: human C4b-binding protein 5' UTR / RNA binding proteins (K562 cell line protein); assay: Gel shift specificity (competition), labeled C4b-binding protein 5' UTR and K562 protein; conditions: 100 and 1,000 fold molar excess of unlabeled RNA
Text: (§3) A primer pair was designed from the 5' end of the UTR and a 3' primer encompassing nucleotide +1 with the use of the OLIGO program. Similar primers encompassing the same criteria can be designed either manually without the use of this program, or using another similar oligonucleotide design program. In addition, the 5' primer contained 24 nucleotides at the 5' end encoding for the T7 promoter. Clones containing the above sequences were generated by rtPCR from total RNA obtained from the K562 lymphoblastoma cell line. The clones were restriction mapped and analyzed by gel electrophoresis to confirm their identity.
(§4) PCR products generating a single band (in the undigested lanes) were then used for in vitro transcription of labeled RNA using Ambion's Maxiscript Kit. The labeled transcripts were used in the RNA binding protein detection assay described above. The binding solutions containing the labeled RNA were incubated with 2 μg of protein isolated from the same cell from which the rtPCR product was generated, and the products were resolved on a non-denaturing gel. […] In this experiment, a 100 and 1,000 fold molar excess of unlabeled identical RNA or the same excess of different RNA are added to the binding reactions.

[5] = tested on: human CD45 5' UTR / RNA binding proteins (K562 cell line protein); assay: Gel shift specificity (competition), labeled CD45 5' UTR and K562 protein; conditions: 100 and 1,000 fold molar excess of unlabeled RNA
Text: as §3, §4

For `CC(=NN=C(N)N)c1cc(NC(=O)CCCCCCCCC(=O)Nc2cc(C(C)=NN=C(N)N)cc(C(C)=NN=C(N)N)c2)cc(C(C)=NN=C(N)N)c1` [Compound G10, CNI-1493], the “post-transcriptional inhibition of TNF-α production” value [1] is given as “post-transcriptionally inhibit TNF-α production”, the “change in counts across the experiments” value ([2]; 4 experiments) is given as “substantial increase in counts in 3 of the 4 experiments” and the “labeled AUUUA RNA retained on filter, percent of RNA&K562 reference, Experiment #29” value ([2]; RNA&K562 = 100) is given as 114.53%. The “labeled AUUUA RNA retained on filter, percent of RNA&K562 reference, Experiment #30” value ([2]; RNA&K562 = 100) was 66.94%, the “labeled AUUUA RNA retained on filter, percent of RNA&K562 reference, Experiment #31” value ([2]; RNA&K562 = 100) was 127.28% and the “labeled AUUUA RNA retained on filter, percent of RNA&K562 reference, Experiment #33” value ([2]; RNA&K562 = 100) was 135.24%. The “Avg. % (labeled AUUUA RNA retained on filter)” value ([2]; mean of Experiments #33, #31, #30, #29) was 111.00%.

For `CC(=O)N(O)CCCCCNC(=O)CCC(=O)N(O)CCCCCNC(=O)CCC(=O)N(O)CCCCCN` [Desferroxiamine, desferroxiamine], the “modulation of IRE/protein binding by small molecules” value (“modulation of IRE/protein binding” for short) [3] was “did not change the amount IRE/protein complex formed”.

With `[Cl][Fe]([Cl])[Cl]` [FeCl3] the “modulation of IRE/protein binding” value [3] was “concentration-dependent inhibition of binding”.

In the case of hemin, the “modulation of IRE/protein binding” value [3] is reported as “concentration-dependent inhibition of binding”.

B1: C4b-binding protein: 5' UTR RNA of human C4b-binding protein alpha chain, SEQ ID NO:3 (nucleic acid)
chain: GCUGCUUUAUUUCUGCUGUUAAUCAUUCAUUGGGCCCGUCAAAAGUUUCUGCCCAUCUAUUUCCAUCAACCGUCCUUGACCAGCCAACCACAUGGCUGAAAUUCAGG
modifications: expressed or natural sequence
In the case of B1, the “competition of complex formation by unlabeled RNA” value [4] is reported as “concentration dependent inhibition of complex formation”.

B2: CD45: 5' UTR RNA of human CD45, SEQ ID NO:4 (nucleic acid)
chain: CUGACAUCAUCACCUAGCAGUUCAUGCAGCUAGCAAGUGGUUUGUUCUUAGGGUAACAGAGGAGGAAAUUGUUCCUCGUCUGAUAAGACAACAGUGGAGAAAGGACGCAUGCAGUUUCUUAGGGACACGGCUGACUUCCAGAUAUGACCAUGUAUUUGUGGCUUAAACUCUUGG
With B2 the “competition of complex formation by unlabeled RNA” value [5] was “concentration dependent inhibition of complex formation”.
